Measurements from patent US4950650A, “Novel arginine vasopressin-binding peptides” (University of Florida, priority 1988, dated 1990).
Where no end group is shown, it is not given here.

Assays:
[1] = tested on: AVP receptor on splenic lymphocyte; test: Binding of 3H-AVP to receptor on splenic lymphocyte membranes; design: species or system mouse; details: for DPM (Mean ± SD): 300 nM 3H-AVP
Procedure: Membranes were prepared as previously described (Torres and Johnson [1988] supra). Freshly dissociated spleen cells were incubated on plastic at 37° C. for 1 hr to remove adherent cells. Plates were washed and non-adherent cells were incubated for an additional hour at 37° C. Washed non-adherent cells were resuspended in 50 mM Tris-HCl buffer (pH 7.4) containing 10 mM EGTA and 10 μM phenylmethylsulfonylfluoride (PMSF), which generally lysed any red blood cells in the preparation. Additional red blood cell lysis was performed using 10 mM potassium bicarbonate buffer containing 16 mM ammonium chloride and 100 μM ethylenediaminetetraacetic acid (EDTA). Cells were washed twice and sonicated on ice using a Fisher Model 300 Sonicator (Fisher Scientific, Pittsburgh, Penna.) with microprobe. Preparations were monitored microscopically and were sonicated until greater than 95% cell rupture was achieved. Sonicated preparations were centrifuged at 1000×g at 4° C. to remove debris and large particles. Supernatants were then spun at 33,000 rpm (55,000×g) at 4° C. for 45 min in a Sorvall UTD65B Ultracentrifuge (T1270 rotor) to isolate membranes. Resulting membrane preparations were resuspended in 50 mM Tris-HCl (pH 7.4) containing 10 mM MgCL2 and 10 μM PMSF, and aliquots were stored at -70° C.
Membranes (30 μg/ml) were incubated in a final volume of 200 μl with cold AVP and/or AVP-binding peptide for 20 min. prior to the addition of 300 nM ^3 H-AVP (specific activity, 70 Ci/mmol; New England Nuclear, Boston, Mass.). Binding was carried out at room temperature for 30 min., at which time samples were placed on ice to stop further binding. Membranes were washed through 0.45 μm filters (GVWP; Millipore, Bedford, Mass.) presoaked in 2% bovine serum albumin (BSA) with approximately 50× volume of ice cold reaction buffer (50 mM Tris-HCl, pH 7.4, 10 mM MgCl2, 2% BSA, 10 μM PMSF). Filters were then placed in scintillation vials and radioactivity was counted on a beta-scintillation counter.

AVP = AVP (Homo sapiens, UniProt P01185); test: Solid matrix binding of 3H-AVP to immobilized AVP-binding peptide; details: 3H-AVP binding to peptide coupled to a solid matrix, room temperature 1 hr; read-out: apparent KD
Procedure: FIG. 1--Specific binding of ^3 H-AVP to AVP-binding peptide […] AVP-binding peptide (200 μl of a 2 mg/ml solution) was bound overnight at 4° C. onto 96-well Immulon plates (Dynatech, Alexandria, Va.). Plates were washed three times with phosphate-buffered saline containing 5% BSA and 0.1% TWEEN™ 20 (binding buffer). Remaining binding sites were bound by incubating plates at room temperature with 20 μl binding buffer/well for 2 hr. After extensive washing, cold AVP (10 μM) was added to the appropriate plates 20 min, prior to the addition of ^3 H-AVP. Solid matrix binding was carried out at room temperature for 1 hr. Plates were washed three times and counts were solubilized with 1 N NaOH. Counts were then placed in scintillation vials and counted on a beta-scintillation counter. Specific binding of ^3 H-AVP was the difference between the binding in the absence and presence of cold AVP.
Evidence for such direct interaction is provided by the binding data of FIG. 1, where ^3 H-AVP bound to the peptide coupled to a solid matrix with an apparent KD of approximately 50 nM. The binding was inhibited by excess cold AVP. We conclude that the peptide blocks AVP function through direct binding to AVP.

[2] = tested on: PA helper signal for IFN production; test: Pressinoic acid (PA) help in IFN production in helper cell depleted spleen cell cultures; type: cell-based, mouse

NC(=O)CC[C@@H]1NC(=O)[C@H](Cc2ccccc2)NC(=O)[C@H](Cc2ccc(O)cc2)NC(=O)[C@@H](N)CSSC[C@@H](C(=O)N2CCC[C@H]2C(=O)N[C@@H](CCCN=C(N)N)C(=O)NCC(N)=O)NC(=O)[C@H](CC(N)=O)NC1=O [AVP, Arginine vasopressin]
effect on binding of 300 nM 3H-AVP to lymphocyte receptors ([1]; cold AVP as competitor): did compete and block
DPM (Mean ± SD) ([1]; competitor 0.1 μM, none = 4,965 ± 226): 5,265 ± 476 DPM
DPM (Mean ± SD) ([1]; competitor 1.0 μM): 4,209 ± 150 DPM
DPM (Mean ± SD) ([1]; competitor 10.0 μM): 3,621 ± 347 DPM
DPM (Mean ± SD) ([1]; competitor 100.0 μM): 3,577 ± 167 DPM

TMKVLTGSP [AVP-binding peptide]
Kd (AVP): ~50 nM

pressinoic acid [PA]
IFN ([2]; Table 4, PA (10) (nm), no binding peptide): 105 ± 21 U/ml
IFN ([2]; Table 5, PA 3 nM, no complex): < 3 U/ml
IFN ([2]; Table 5, PA 10 nM, no complex): 185 ± 21 U/ml
IFN ([2]; Table 5, PA 30 nM, no complex): 250 ± 71 U/ml
